Assay results reported in US5462933A, “Modified bile acid conjugates, and their use as pharmaceuticals” (Hoechst Aktiengesellschaft, priority 1989, dated 1995).

Assay: In vivo perfused liver: absorption from portal vein blood and excretion into the bile
Parameters: species or system rat
Conditions: after W-X-G (Example 67)
Method: In order to investigate a selective absorption of bile acid derivatives into the liver and their hepatotropic action, the appropriate derivatives were injected as a bolus into a mesenteric vein of anesthetized rats and the excretion of these derivatives and the corresponding active compounds or active compound metabolites into the bile was analysed.
Male Sprague-Dawley rats (300-500 g bodyweight) had their food withdrawn and received water ad libitum. After tracheotomy, the abdomen was opened by median section under urethane anesthesia ([…] i.m. urethane 30%). The pylorus was ligated and the bile duct was cannulated by advancing a polyethylene tube (d=0.05 mm) up to the liver and the bile was drained. The volume of secretion was measured at 15 minute intervals. After a preliminary period of 60 minutes, the substances (0.5 ml of a 1 mM solution in 0.9% NaCl solution) were administered into a mesenteric vein in the course of 30 sec and the bile was collected at prestated time intervals (2, 4, 6, 8, 10, 15, 20, 30, 40, 50, 60, 70, 80, 90, 100, 110 and 120 min). The bile acid derivative was administered first, and the appropriate active compound was administered after a collection period of 2 hours. 120 min after administration of test substance, the bladder volume was measured and the urine was also collected. The bile and urine samples were stored on ice during the experiment and then deep-frozen.
Each 10 μl bile sample was applied to TLC plates (10×20 cm, silica gel 60 specific layer thickness 0.25 mm, No. 37581 Riedel de Haen, Seelze, Federal Republic of Germany) using Microcaps (Drummond, Broomall, USA) and the thin-layer plates were dried in the air for 20 min.
The plates were developed in the following mobile phases: Substance Mobile phase
The constituents of the mobile phases were bought from the usual manufacturers in the highest possible purity grade. After developing and drying the plates, the distribution of the active compounds and the bile acid derivatives, or their metabolites, was determined by densitometry (CD 50 densitometer, DESAGA; Heidelberg). Detection was carried out in reflection mode with linear sampling at the wavelengths 252 nm (chlorambucil/chlorambucil conjugate) or 260 nm (remaining substances).
In order to evaluate the chromatograms, the relative intensity of the bile acid derivatives, the active compounds or the active compound metabolites on a chromatogram was given in surface area units.

## C[C@H](CCC(=O)NCCS(=O)(=O)O)[C@H]1CC[C@H]2[C@@H]3[C@H](O)C[C@@H]4C[C@@H](OCCNC(=O)CCCc5ccc(N(CCCl)CCCl)cc5)CC[C@]4(C)[C@H]3C[C@H](O)[C@]12C [Example 67]
Bile at 2 min
  (2) Conc. W-X-G in bile: 1207 surface area units
  Total (1) + (2): 1207 surface area units
Bile at 4 min
  (2) Conc. W-X-G in bile: 17803 surface area units
  Total (1) + (2): 17803 surface area units
Bile at 6 min
  (2) Conc. W-X-G in bile: 21762 surface area units
  Total (1) + (2): 21762 surface area units
Bile at 8 min
  (2) Conc. W-X-G in bile: 27280 surface area units
  Total (1) + (2): 27280 surface area units
Bile at 10 min
  (2) Conc. W-X-G in bile: 27346 surface area units
  Total (1) + (2): 27346 surface area units
Bile at 15 min
  (2) Conc. W-X-G in bile: 16673 surface area units
  Total (1) + (2): 16673 surface area units
Bile at 20 min
  (2) Conc. W-X-G in bile: 10748 surface area units
  Total (1) + (2): 10748 surface area units
Bile at 30 min
  (2) Conc. W-X-G in bile: 5375 surface area units
  Total (1) + (2): 5375 surface area units
Bile at 40 min
  (2) Conc. W-X-G in bile: 1273 surface area units
  Total (1) + (2): 1273 surface area units
Bile at 50 min
  (2) Conc. W-X-G in bile: 828 surface area units
  Total (1) + (2): 828 surface area units
Bile at 60 min
  (2) Conc. W-X-G in bile: 633 surface area units
  Total (1) + (2): 633 surface area units
Bile at 70 min
  (2) Conc. W-X-G in bile: 826 surface area units
  Total (1) + (2): 826 surface area units
Bile at 80 min
  (2) Conc. W-X-G in bile: 635 surface area units
  Total (1) + (2): 635 surface area units
Bile at 90 min
  (2) Conc. W-X-G in bile: 638 surface area units
  Total (1) + (2): 638 surface area units
Bile at 100 min
  (2) Conc. W-X-G in bile: 559 surface area units
  Total (1) + (2): 559 surface area units
Bile at 110 min
  (2) Conc. W-X-G in bile: 408 surface area units
  Total (1) + (2): 408 surface area units
Bile at 120 min
  (2) Conc. W-X-G in bile: 383 surface area units
  Total (1) + (2): 383 surface area units
